Data on six molecules can be found in US20230127008A1, “STAT3-TARGETED BASE EDITOR THERAPEUTICS FOR THE TREATMENT OF MELANOMA AND OTHER CANCERS” (The Broad Institute, Inc., priority 2020, published 2023).

pIC50: −log10 of the molar value.

The subject of assay [1] is DNA. The settings on record: SpCas9 mutation relative to SEQ ID NO: 74; UniProtKB-Q99ZW2 entry; cited from earlier work.
A further assay deals with STAT3 SH2 domain (Homo sapiens, UniProt P40763). The settings on record: 37° C.; cited from earlier work.
STAT3 SH2 domain, sequence (P40763 whole entry, the tested form may be a part): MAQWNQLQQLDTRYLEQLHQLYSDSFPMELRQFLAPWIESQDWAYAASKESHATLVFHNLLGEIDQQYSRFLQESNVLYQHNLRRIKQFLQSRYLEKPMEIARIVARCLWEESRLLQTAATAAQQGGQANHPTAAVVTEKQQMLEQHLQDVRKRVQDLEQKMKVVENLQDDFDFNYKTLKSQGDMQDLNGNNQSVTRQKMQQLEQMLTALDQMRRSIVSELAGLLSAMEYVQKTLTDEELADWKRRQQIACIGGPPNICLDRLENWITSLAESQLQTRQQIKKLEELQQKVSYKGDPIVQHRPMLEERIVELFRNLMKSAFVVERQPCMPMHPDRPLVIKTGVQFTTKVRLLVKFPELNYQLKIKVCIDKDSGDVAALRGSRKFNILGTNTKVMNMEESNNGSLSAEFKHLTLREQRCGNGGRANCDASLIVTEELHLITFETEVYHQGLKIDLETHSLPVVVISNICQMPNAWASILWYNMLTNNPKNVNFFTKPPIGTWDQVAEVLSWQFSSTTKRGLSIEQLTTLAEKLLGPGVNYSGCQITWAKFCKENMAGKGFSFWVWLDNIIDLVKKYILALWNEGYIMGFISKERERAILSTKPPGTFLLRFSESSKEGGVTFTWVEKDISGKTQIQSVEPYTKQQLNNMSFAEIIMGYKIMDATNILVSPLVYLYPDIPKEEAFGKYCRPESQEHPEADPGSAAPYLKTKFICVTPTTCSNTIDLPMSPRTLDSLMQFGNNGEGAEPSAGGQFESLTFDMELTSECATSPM
Assay [2] relates to STAT3. As to the kind of experiment: STAT3 reporter signal after STAT3 inhibitor or base editor treatment (FIGS. 3, 4, 5). The format is cell-based.
Assay [3] relates to STAT3. Put plainly: STAT3 reporter system (STAT3 signal). Format: cell-based.
Assay [4] has as its system STAT3-dependent breast cancer cells. The settings on record: 10 μM; cited from earlier work.
The subject of assay [5] is DNA. Put plainly: A to G editing on DNA by ecTadA mutant-nCas9 constructs (mammalian construct). Format: cell-based.

In the case of “1099-1368 deletion: SpCas9 mutation relative to canonical SpCas9, SEQ ID NO: 74”, the “Function/Characteristic (as reported)” value with DNA [1] is “No nuclease activity”.
`O=[N+]([O-])c1ccc2c(c1)S(=O)(=O)C=C2` [Stattic, stattic]: the pIC50 (commonly the IC50 on a negative log10 scale, so that one unit is a factor of ten) at STAT3 SH2 domain is 5.29. In addition, the “STAT3 signal over time” value is “produces an effect that does not last over time” in the assay on STAT3 [2] and “does not lead to a durable effect” in the assay on STAT3 [3] (extension of the graph of FIG. 3, FIG. 5). Besides, the STAT3-driven signals entry in the assay with STAT3 [2] (different concentrations) is given as “reduce STAT3-driven signals”. In the assay on STAT3 [3] (STAT3 inhibitor at different concentrations, FIG. 3), the “inhibition of STAT3” value is given as “inhibition of STAT3”. Further, the apoptosis entry in assay [4] was “induce apoptosis”.
In the case of “H840A: SpCas9 mutation relative to canonical SpCas9, SEQ ID NO: 74”, the “Function/Characteristic (as reported)” value in the assay with DNA [1] is “Nickase mutant which cleaves the non-”.
Regarding “ecTadA(D108G)-XTEN-nCas9-NLS: ABE fusion protein, SEQ ID NO: 155”, the “activity on DNA, A to G editing” value with DNA [5] is recorded as “ecTadA(D108G)-XTEN-nCas9-NLS: (mammalian construct, active on DNA, A to G”.
Turning to “ecTadA(D108N)-XTEN-nCas9-NLS: ABE fusion protein, SEQ ID NO: 154”, in the assay with DNA [5], the “activity on DNA, A to G editing” value is reported as “ecTadA(D108N)-XTEN-nCas9-NLS: (mammalian construct, active on DNA, A to G”.
Take “ecTadA(D108V)-XTEN-nCas9-NLS: ABE fusion protein, SEQ ID NO: 156”: the “activity on DNA, A to G editing” value with DNA [5] was “ecTadA(D108V)-XTEN-nCas9-NLS: (mammalian construct, active on DNA, A to G”.
